Measurements published in paper PMC6100582 (Molecules : A Journal of Synthetic Chemistry and Natural …, 2018).
Values after ≈ are worked out from the molar mass of the structure shown. Read-outs that look alike come from different tables or passages of the source.

Columns and labels:
[1] = tested on: Candida albicans ATCC 90028; test: In vitro antifungal susceptibility testing (MIC determination); assay type: cell-based; conditions: ATCC90028
Vero cell cultures = conditions: African green monkey
Coxsackie Virus B4 = test: Antiviral activity in Vero cell cultures; assay type: cell-based; conditions: Enterovirus B
Sindbis Virus = test: microbe, parasite or virus in culture; assay type: cell-based; conditions: Vero
Para-Influenza-3 Virus = test: organism not typed; assay type: cell-based
Reovirus-1 = test: Antiviral activity in Vero cell cultures; assay type: cell-based
in vitro = conditions: African green monkey
Punta Toro Virus = test: microbe, parasite or virus in culture; assay type: cell-based
Yellow Fever Virus = test: microbe, parasite or virus in culture; assay type: cell-based; conditions: Vero
[2] = tested on: Pseudomonas aeruginosa ATCC 27853; test: Minimum biofilm eradication assay; assay type: cell-based
Procedure: (§1) MBECs of fumardiamides 4a–f and succindiamides 5a–f were determined as follows. Each well (96-well plate) was filled with 100 µl of bacterial (10^7 CFU/mL) or yeast (5 × 10^6 CFU/mL) suspension. When the inhibition of yeast biofilm formation was tested, the wells were pre-treated with fetal bovine serum (FBS) (250 µl per well). Negative controls contained broth only. Positive controls were performed using standard antimicrobial drugs gentamycin (Gen) and Amph, respectively. […] Following incubation period, each well was aspirated, washed three times and vigorously shaken to remove all non-adherent bacteria/yeast. The remaining attached cells were fixed with methanol (15 min) and the plates were left to dry overnight. Formed biofilm was stained with crystal violet (1%, 5 min). Excess stain was rinsed by placing the plate under running tap water and the plates were left to dry. Adherent cells were solubilized using ethanol. The absorbance was read at 570 nm. The MBEC value represents the lowest dilution of a compound at which bacteria fail to grow.

[3] = tested on: Staphylococcus aureus ATCC 6538; test: Minimum biofilm eradication assay; assay type: cell-based
Procedure: as §1

[4] = tested on: Enterococcus faecalis ATCC 29212; test: Minimum biofilm eradication assay; assay type: cell-based
Procedure: as §1

[5] = tested on: Bacillus subtilis ATCC 6633; test: Minimum biofilm eradication assay; assay type: cell-based
Procedure: as §1

[6] = tested on: Acinetobacter baumannii MFBF 10913; test: Minimum biofilm eradication assay; assay type: cell-based
Procedure: as §1

[7] = tested on: Proteus mirabilis MFBF 10430; test: Minimum biofilm eradication assay; assay type: cell-based
Procedure: as §1

[8] = tested on: Salmonella enteritidis MFBF 11945; test: Minimum biofilm eradication assay; assay type: cell-based
Procedure: as §1

[9] = tested on: Bacillus cereus ATCC 11778; test: Minimum biofilm eradication assay; assay type: cell-based
Procedure: as §1

[10] = tested on: Serratia marcescens ATCC 10905; test: Minimum biofilm eradication assay; assay type: cell-based
Procedure: as §1

[11] = tested on: Escherichia coli ATCC 10536; test: Minimum biofilm eradication assay; assay type: cell-based
Procedure: as §1

[12] = tested on: Streptococcus pneumonia MFBF 10373; test: Minimum biofilm eradication assay; assay type: cell-based, Streptococcus pneumoniae
Procedure: as §1

[13] = tested on: Hap1 (chronic myeloid leukemia); test: Antiproliferative screening (cytostatic activity); assay type: cell-based; conditions: Homo sapiens, HAP1, 72 h, read-out: IC50 Hap1
Procedure: (§2) Cytostatic activity was evaluated in vitro on nine different types of human tumor cell lines: Capan-1, Hap1, HCT-116, and NCI-H460, as well as hematological tumors such as DND-41, HL-60, K-562, MM.1S and Z-138 as described previously. All human tumor cell lines were acquired from the American Type Culture Collection (ATCC, Manassas, VA, USA), except for the DND-41 cell line which was purchased from the Deutsche Sammlung von Mikroorganismen und Zellkulturen (DSMZ Leibniz-Institut, Braunschweig, Germany) and the Hap1 cell line which was purchased from Horizon Discovery (Waterbeach, UK). Capan-1, Hap1, HL-60, K-562, Z-138, MM.1S and DND-41 were cultured in Iscove′s Modified Dulbecco′s Medium (IMDM, Gibco Life Technologies, Gaithersburg, MD, USA), HCT-116 were grown in McCoy′s 5A Medium (Gibco Life Technologies) and NCI-H460 were cultured in RPMI (Gibco Life Technologies). All media were supplemented with 10% FBS (HyClone, GE Healthcare Life Sciences, USA). Adherent cell lines HCT-116, Hap1, NCI-H460, and Capan-1 cells were seeded at a density between 400 and 1250 cells per well, in 384-well, black-walled, clear-bottomed tissue culture plates (Greiner Bio-One, Kremsmünster, Germany). After overnight incubation, cells were treated with test compounds at four different concentrations ranging from 100 to 0.8 µM. Suspension cell lines HL-60, K-562, Z-138, MM.1S, and DND-41 were seeded at densities ranging from 3000 to 10,000 cells per well in 384-well, black-walled, clear-bottomed tissue culture plates containing test compounds at the same four concentrations. The plates were incubated and monitored at 37 °C for 72 h in an IncuCyte (Essen BioScience Inc., Ann Arbor, MI, USA) for real-time imaging. Images were taken every 3 h, with one field image per well under 10× magnification. All compounds were tested with duplicate data points and averaged. […]

[14] = tested on: HL-60 (acute myeloid leukemia); test: Antiproliferative screening (cytostatic activity); assay type: cell-based; conditions: Homo sapiens, HL-60, 72 h, read-out: IC50 HL-60
Procedure: as §2

[15] = tested on: K-562 (chronic myeloid leukemia); test: Antiproliferative screening (cytostatic activity); assay type: cell-based; conditions: Homo sapiens, K562, 72 h, read-out: IC50 K-562
Procedure: (§3) All human tumor cell lines were acquired from the American Type Culture Collection (ATCC, Manassas, VA, USA), except for the DND-41 cell line which was purchased from the Deutsche Sammlung von Mikroorganismen und Zellkulturen (DSMZ Leibniz-Institut, Braunschweig, Germany) and the Hap1 cell line which was purchased from Horizon Discovery (Waterbeach, UK). […] All media were supplemented with 10% FBS (HyClone, GE Healthcare Life Sciences, USA). […] After overnight incubation, cells were treated with test compounds at four different concentrations ranging from 100 to 0.8 µM. […] Images were taken every 3 h, with one field image per well under 10× magnification. All compounds were tested with duplicate data points and averaged.

MM.1S (multiple myeloma) = test: Antiproliferative screening (cytostatic activity); assay type: cell-based; conditions: Homo sapiens, MM1.S, 72 h, read-out: IC50 MM.1S
Procedure: as §3

[16] = tested on: NCI-H460 (lung carcinoma); test: Antiproliferative screening (cytostatic activity); assay type: cell-based; conditions: Homo sapiens, NCI-H460, 72 h, read-out: IC50 NCI-H460
Procedure: as §3

[17] = tested on: HCT-116 (colorectal carcinoma); test: Antiproliferative screening (cytostatic activity); assay type: cell-based; conditions: Homo sapiens, HCT-116, 72 h, read-out: IC50 HCT-116
Procedure: as §3

[18] = tested on: Capan-1 (pancreatic adenocarcinoma); test: Antiproliferative screening (cytostatic activity); assay type: cell-based; conditions: Homo sapiens, CAPAN-1, 72 h, read-out: IC50 Capan-1
Procedure: as §3

[19] = tested on: Z-138 (non-Hodgkin lymphoma); test: Antiproliferative screening (cytostatic activity); assay type: cell-based; conditions: Homo sapiens, Z-138, 72 h, read-out: IC50 Z-138
Procedure: as §3

[20] = tested on: DND-41 (acute lymphoblastic leukemia); test: Antiproliferative screening (cytostatic activity); assay type: cell-based, human; conditions: Homo sapiens, DND41, 72 h, read-out: IC50 DND-41
Procedure: as §2

[21] = tested on: Staphylococcus aureus ATCC 6538; test: Antimicrobial susceptibility assay in vitro (MIC determination); assay type: cell-based; conditions: ATCC6538
[22] = tested on: Streptococcus pneumoniae MFBF 10373; test: as above; assay type: cell-based; conditions: MFBF10373, serial microdilution, 18 h, 35 °C
Procedure: (§4) Stock solutions of the tested compounds were prepared in DMSO (10 mg/mL). […] The absorbance was recorded at 540 nm. As a positive quality control (susceptibility of strains) tetracycline hydrochloride (TC) (Sigma-Aldrich) was added into wells.

[23] = tested on: Bacillus subtilis ATCC 6633; test: as above; assay type: cell-based; conditions: ATCC6633, serial microdilution, 18 h, 35 °C
Procedure: as §4

[24] = tested on: Acinetobacter baumannii MFBF 10913; test: as above; assay type: cell-based; conditions: MFBF10913, serial microdilution, 18 h, 35 °C
Procedure: as §4

[25] = tested on: Bacillus cereus ATCC 11778; test: as above; assay type: cell-based; conditions: ATCC11778, serial microdilution, 18 h, 35 °C
Procedure: as §4

[26] = B4, Vero cells, MTS, read-out: EC50 Coxsackie Virus B4, MTS
[27] = B4, Vero cells, visual CPE score, read-out: EC50 Coxsackie Virus B4, Visual CPE Score
[28] = read-out: EC50 Sindbis Virus, MTS
[29] = read-out: EC50 Sindbis Virus, Visual CPE Score
[30] = Vero cells, MTS, read-out: EC50 Para-Influenza-3 Virus, MTS
[31] = Vero cells, MTS, read-out: EC50 Reovirus-1, MTS
[32] = Vero cells, visual CPE score, read-out: EC50 Reovirus-1, Visual CPE Score
[33] = Vero cells, MTS, read-out: EC50 Punta Toro Virus, MTS
[34] = read-out: EC50 Yellow Fever Virus, MTS
[35] = read-out: EC50 Yellow Fever Virus, Visual CPE Score

| Compound | EC50 (Coxsackie Virus B4; [26]) [µM] | EC50 (Coxsackie Virus B4; [27]) [µM] | EC50 (Sindbis Virus; [28]) [µM] | EC50 (Sindbis Virus; [29]) [µM] | EC50 (Para-Influenza-3 Virus; [30]) [µM] | EC50 (Reovirus-1; [31]) [µM] | EC50 (Reovirus-1; [32]) [µM] | CC50 (in vitro) [µg/mL] | EC50 (Punta Toro Virus; [33]) [µM] | EC50 (Yellow Fever Virus; [34]) [µM] | EC50 (Yellow Fever Virus; [35]) [µM] | MBEC [2] [µg/mL] | MBEC [3] [µg/mL] | MBEC [4] [µg/mL] | MBEC [5] [µg/mL] | MBEC [6] [µg/mL] | MBEC [7] [µg/mL] | MBEC [8] [µg/mL] | MBEC [9] [µg/mL] | MBEC [10] [µg/mL] | also measured |
| --- | --- | --- | --- | --- | --- | --- | --- | --- | --- | --- | --- | --- | --- | --- | --- | --- | --- | --- | --- | --- | --- |
| C[C@@H]1[C@H](O)[C@@H](C)/C=C/C=C/C=C/C=C/C=C/C=C/C=C/[C@H](O[C@@H]2O[C@H](C)[C@@H](O)[C@H](N)[C@@H]2O)C[C@@H]2O[C@](O)(C[C@@H](O)C[C@@H](O)[C@H](O)CC[C@@H](O)C[C@@H](O)CC(=O)O[C@H]1C)C[C@H](O)[C@H]2C(=O)O [Amph, amphotericin B, reference compound] |  |  |  |  |  |  |  |  |  |  |  |  |  |  |  |  |  |  |  |  | MIC [1]: 0.5 µg/mL (≈ 0.541 µM) |
| COc1c(C)c2c(c(O)c1C/C=C(\C)CCC(=O)O)C(=O)OC2 [MPA, mycophenolic acid, reference compound] | > 100 | > 100 | 12 | 1.7 | 1 | 0.6 | 0.8 | > 100 | 11 | 0.5 | 0.8 |  |  |  |  |  |  |  |  |  | Cytotoxicity MCC (minimum cytotoxic concentration) (Vero cell cultures): >100; EC50 (Punta Toro Virus; Vero cells, visual CPE score, read-out: EC50 Punta Toro Virus, Visual CPE Score): 8.9 µM |
| COc1cc(NC(C)CCCN)c2ncccc2c1 (stereo not drawn) [PQ, primaquine, reference compound] |  |  | > 50 |  | > 50 |  |  |  | > 50 | > 50 |  | 65 | 50 | >100 | 80 | 50 | >100 | 70 | 70 | >100 | EC50 (Coxsackie Virus B4; B4, Vero, read-out: EC50 Coxsackie Virus B4, MTS): > 50 µM; MBEC [11]: 65 µg/mL; MBEC [12]: 70 µg/mL; EC50 (Reovirus-1; Vero, read-out: EC50 Reovirus-1, MTS): > 50 µM; IC50 [13]: 42.7 µM; IC50 [14]: 2.2 µM; IC50 [15]: 35.2 µM; IC50 (MM.1S (multiple myeloma)): 28.3 µM; IC50 [16]: 52.6 µM; IC50 [17]: 30.9 µM; IC50 [18]: 18.7 µM; IC50 [19]: 7.1 µM; IC50 [20]: 11.4 µM |
| NC(=O)c1ncn([C@@H]2O[C@H](CO)[C@@H](O)[C@H]2O)n1 [RIB, ribavirin, reference compound] | > 250 | > 250 | > 250 | 11 |  | 107 | 126 | > 250 |  | 119 | > 250 |  |  |  |  |  |  |  |  |  | EC50 (Para-Influenza-3 Virus; Vero, read-out: EC50 Para-Influenza-3 Virus, MTS): 73 µM; EC50 (Para-Influenza-3 Virus; Vero, read-out: EC50 Para-Influenza-3 Virus, Visual CPE Score): 111 µM; EC50 (Punta Toro Virus; Vero, read-out: EC50 Punta Toro Virus, MTS): 85 µM; EC50 (Punta Toro Virus; Vero, read-out: EC50 Punta Toro Virus, Visual CPE Score): 111 µM |
| CN(C)[C@@H]1C(O)=C(C(N)=O)C(=O)[C@@]2(O)C(O)=C3C(=O)c4c(O)cccc4[C@@](C)(O)[C@H]3C[C@@H]12 [TC, tetracycline, reference compound] |  |  |  |  |  |  |  |  |  |  |  |  |  |  |  |  |  |  |  |  | MIC [21]: 0.3 µg/mL (≈ 0.675 µM); MIC [22]: 0.3 µg/mL (≈ 0.675 µM); MIC [23]: 0.3 µg/mL (≈ 0.675 µM); MIC [24]: 3 µg/mL (≈ 6.75 µM); MIC [25]: 0.3 µg/mL (≈ 0.675 µM) |
| gentamycin [reference compound] |  |  |  |  |  |  |  |  |  |  |  | 50 | 12.5 | 50 | 50 | 25 | 50 | 50 | 50 | 50 | MBEC [11]: 25 µg/mL; MBEC [12]: 25 µg/mL |
